According to paper PMC9817100, “Preclinical profiles of SKB264, a novel anti-TROP2 antibody conjugated to topoisomerase inhibitor, demonstrated promising antitumor efficacy compared to IMMU-132” (Frontiers in Oncology, 2022):
Where two headings read alike, the source gives them in different places.

Tests used:
[1] = tissue distribution after single i.v. injection in tumor-bearing nude mice; assay type: in vivo; settings: [3H]KL610023 0.1 mg/100 µCi/kg single i.v.; HCC1806 xenografted nude mice
Protocol: A total of 96 female nude mice bearing human HCC1806 tumor cells were divided into 16 groups (n = 6 mice/group) according to body weights and tumor volumes. After receiving a single i.v. injection of [^3H]KL610023, at 0.083, 4, 24, and 72 h, as well as a single i.v. injection of [^3H-KL610023]SKB264, [^3H]SKB264-mAb, or [^3H-mAb]SKB264 at 1, 24, 168, and 336 h post-dosing, blood, tumor tissue, and 16 types of normal tissues were collected from the euthanized mice.
Plasma samples were directly quantified by liquid scintillation counting (LSC) without further manipulation; however, the blood and tissue samples were digested with 1N of KOH at 90°C prior to quantification by LSC. The […] (TRA) for blood, plasma, and tissues was converted to nanogram equivalent of [^3H]KL610023 or TRA (ng Eq./g).

[2] = system: Calu-3 (TROP2+); assay: cytotoxic assay (CellTiter-Glo, 72 h) Calu-3; assay type: cell-based; settings: Homo sapiens, read-out: IC50 cell growth inhibition
Protocol: (§1) Tumor cells were seeded on 96-well plates at the following concentrations: HCC1806 (3,000 cells per well), NCI-N87 (5,000 cells per well), BxPC-3 (2,000 cells per well), Calu-3 (8,000 cells per well), NCI-H23 (TROP2+, 3,000 cells per well), and NCI-H23 (parental, 3,000 cells per well). After overnight incubation, the diluted testing items were added respectively. After 72 h, cell viability was evaluated using a CellTiter-Glo Luminescent Cell Viability Assay (Promega Corp. Madison, WI), following the manufacturer’s instruction.

[3] = payload KL610023 PK in plasma of cynomolgus monkey (Table 5); assay type: in vivo; set-up: Vz_obs / Cl_obs: unit not given here; settings: KL610023 administered, n=4, dose not given
Source text: Since the metabolism of ADC is different from that of the toxic payload ([30], [31]), the linkage of SKB264 mAb can dramatically prolong the half-life of KL610023 as compared to KL610023 alone. Nevertheless, after being released from SKB264, KL610023 could be rapidly eliminated. […] Overall, the proprietary technology used in our study to construct SKB264 could ensure a more precise delivery process.

[4] = system: HCC1806 (TROP2+); assay: cytotoxic assay (CellTiter-Glo, 72 h) HCC1806; assay type: cell-based, human; settings: Homo sapiens
Protocol: as §1

[5] = system: HCC1806 xenograft; assay: PK-PD study, single dose, HCC1806 xenograft; assay type: in vivo, BALB/c nude mice; settings: tumor; payload after single i.v. 3 mg/kg SKB264 (KL610023) or IMMU-132 (SN-38); HCC1806 tumor-bearing mice; mean, n = 5
Protocol: Phoenix WinNonlin 8.1 was used to calculate the PK parameters in the non-compartment model, including t 1/2, T max, C max, AUC0-t, and AUC0-∞. […] The half maximal effective concentration (EC50) and half maximal inhibitory concentration (IC50) were calculated using a nonlinear regression model with sigmoidal fitting. The in vitro antitumor activities of drugs were evaluated by a two-tailed paired t-test.

CC[C@@]1(O)C(=O)OCc2c1cc1n(c2=O)Cc2c-1nc1ccccc1c2CCN(C(C)C)S(C)(=O)=O [KL610023]
distribution of total radioactivity [1]: widely distributed in the tissues and organs that had more abundant blood flow | IC50 [2]: 1.36 nM | AUC(0-inf) [3]: 97 ± 26.9 ng·h/mL | AUC(0-t) [3]: 97 ± 26.7 ng·h/mL | Cl_obs [3]: 535 ± 148 | Cmax [3]: 273 ± 54.4 ng/mL | Vz_obs [3]: 1119 ± 548 | half-life [3]: 1.6 h | IC50 ([4]; HCC1806 (TROP2+), 72 h, Figure 2D, read-out: IC50 cell growth inhibition): 1.5 nM | IC50 ([4]; HCC1806, payload comparison, Figure 7C, duplicates, read-out: IC50 inhibition of proliferation of HCC1806 cells): 1.82 nM | AUC0-∞ of payload [5]: 1949 ng·h/g | AUClast of payload [5]: 1903 ng·h/g
